Reference: US9040249B2, “Pan-kinase activation and evaluation of signaling pathways” (Beckman Coulter, Inc., priority 2008, dated 2015)
“And” between values parts separate entries of the source, which are not always exact repeats. Equal entries are not always repeated. “Also recorded” adds a separate entry of the source.

Assays:
ribosomal S6 protein [1] = test: Inhibition of S6 activation by LPS with ERK and PI3K inhibitors; type: cell-based, human
Experimental: (§1) 100 μl of blood was inserted into the bottom of 12×75 mm tubes. Blood was removed from the side of tube with cotton swab to eliminate potential contamination of the sample with unfixed cells. 100 ng lipopolysaccharide (LPS) was added to activation tubes (or equal volume of phosphate buffered saline (PBS) to control tubes) and the tubes were placed in 37° C. water bath.
(§2) After various incubation times (e.g. 1 minute to 60 minutes), the first tube was removed from the incubator and 65 μl 10% formaldehyde was added into tube. The tubes were mixed and placed in a rack and incubated at room temperature. After exactly a 10 minute incubation with formaldehyde, 1 ml Lyse/Permeabilization Buffer ([…] TRITON X-100 10% stock solution to 500 ml with PBS. 0.1165% TRITON X-100 solution at room temperature in the dark and pre-heated to 37° C. immediately prior to use.) was added to each tube, vortexed vigorously and returned to the rack. The tubes were incubated at room temperature for 15 minutes.
2 ml cold Wash Buffer (PBS (w/o Ca++/Mg++) with 4% FBS, sterile filtered (0.22 um filter)) (4° C.) was added to each tube. All tubes were centrifuged at 500×g for 4 minutes. […]
Antibodies and cold Wash Buffer were added to a final volume of 100 μl and incubated at room temperature for 30 minutes. […] Cells were resuspended in 1 ml Wash Buffer, vortexed and analyzed on the flow cytometer. […]

ERK [2] = test: LPS activation of MAPK signaling in whole blood monocytes, flow cytometry (P-ERK); type: cell-based, human
Experimental: as §1, §2
(§3) 2 ml cold Wash Buffer (PBS (w/o Ca++/Mg++) with 4% FBS, sterile filtered (0.22 um filter)) (4° C.) was added to each tube. All tubes were centrifuged at 500×g for 4 minutes. Tubes were removed from the centrifuge and supernate fluid was aspirated. 1 ml of cold (4° C.) 50% methanol was added to each tube and vortexed. All tubes were then incubated on ice for 10 minutes.
(§4) The tubes were then centrifuged at 500×g for 4 minutes and the supernate fluid was aspirated. 2 ml cold Wash Buffer (4° C.) was added to each tube. All tubes were centrifuged at 500×g for 4 minutes. Tubes were removed from the centrifuge and supernate fluid was aspirated.
(§5) Antibodies and cold Wash Buffer were added to a final volume of 100 μl and incubated at room temperature for 30 minutes. 2 ml cold Wash buffer was added, mixed and centrifuged. Cells were resuspended in 1 ml Wash Buffer, vortexed and analyzed on the flow cytometer.
(§6) In this study, a simultaneous measurement of four different signaling phospho-epitopes, which include P-ERK, P-p38 MAP Kinase, P-SAPK (Stress-Activated Protein Kinase), and P-S6 ribosomal protein (a measurement of new polypeptide synthesis), was conducted. This assay employed a measurement of the time course of LPS activation, in both “naive” whole blood, and whole blood samples previously exposed to LPS activation (“re-activated”). This assay also employed the fixation and permeabilization approach described above to measure both cell surface (CD14 to identify monocytes) and cytoplasmic or nuclear localized phospho-epitopes (P-ERK, P-p38, P-SAPK, and P-S6). This assay also employed an internal negative control to analyzing the data, relying on populations, rather than isotype controls, and measuring changes in MFI (mean fluorescence intensity) rather than percent positive.

p38 MAP Kinase = test: LPS activation of MAPK signaling in whole blood monocytes, flow cytometry (P-p38); type: cell-based, human
Experimental: as §1, §2, §3, §4, §5, §6

SAPK/JNK = test: LPS activation of MAPK signaling in whole blood monocytes, flow cytometry (P-SAPK/JNK); type: cell-based, human
Experimental: as §1, §2, §3, §4, §5, §6

ribosomal S6 protein [3] = test: LPS activation of ribosomal S6 protein in whole blood monocytes, flow cytometry (P-S6); type: cell-based, human
Experimental: as §1, §2, §3, §4, §5, §6

ERK [4] = settings: cited from earlier work
[5] = normal samples not previously exposed to LPS
[6] = normal whole blood, LPS 10 minutes at 37° C.
[7] = re-stimulation after 60 minutes, up to 2 hours
[8] = previously LPS-stimulated, 0 time of re-exposure
[9] = up to 120 minutes post stimulation

In the case of `N#CC(=C(/N)Sc1ccccc1N)/C(C#N)=C(\N)Sc1ccccc1N` [U0126], the “inhibition of S6 activation by LPS” value (ribosomal S6 protein [1]; ERK inhibitor U0126 and PI3K inhibitor Ly294002 both present) is reported as “inhibition of phosphorylation was seen; also recorded: Complete inhibition” and the “inhibition of S6 activation by LPS” value (ribosomal S6 protein [1]; inhibitor alone) is reported as “Only inhibition of both pathways leads to complete inhibition”.
In the case of lipopolysaccharide [LPS], the “ERK pathway activity after 60 minutes of LPS activation” value (ERK [2]; 60 minutes) is reported as “decreased, but do not return to baseline”, the “early P-ERK peak, time after LPS addition” value (ERK [2]; [5]) is reported as 1 to 4 min and the “second P-ERK peak, time after LPS stimulation” value (ERK [2]; [5]) is reported as 10 to 15 min. The “activated ERK in CD14+ monocytes” value (ERK [2]; [6]) was “all CD14+ monocytes have activated p-38, JNK, and ERK”, the “ERK activity when additional LPS is added” value (ERK [2]; [7]) was “no additional increase in any MAPK activity” and the “ERK activation six minutes after LPS activation” value (ERK [2]; six minutes, 37° C.) was “initial ERK activation declines”. The “MFI of P-ERK upon re-exposure to LPS” value (ERK [2]; up to 90 minutes after LPS re-stimulation, versus 0 time control) was “does not change significantly above the 0 time control”, the “earliest ERK activation, time following LPS stimulation” value (ERK [2]; whole blood monocytes, 37° C., before JNK or p38 activation) was 2 min and the “percentage of P-p38 positive monocytes” value (p38 MAP Kinase; 15 min after LPS re-exposure) was 46%. The “aggregate MFI of P-p38” value (p38 MAP Kinase; 15 minutes after re-exposure to LPS) was 5.5, the “p38 pathway activity after 60 minutes of LPS activation” value (p38 MAP Kinase; 60 minutes) was “decreased, but do not return to baseline” and the “monocytes retaining the same P-p38 MFI as in the 15 min primary response” value (p38 MAP Kinase; 120 min after primary LPS stimulation) was “Roughly 50%”. The “monocyte population showing significant increase in P-p38 MFI” value (p38 MAP Kinase; after primary LPS stimulation) was “about 100%”, the “levels of P-p38 after primary LPS stimulation” value (p38 MAP Kinase; even after periods of 120 min) was “do not return to basal levels” and the “activated p38 in CD14+ monocytes” value (p38 MAP Kinase; [6]) was “all CD14+ monocytes have activated p-38, JNK, and ERK”. The “aggregate MFI of P-p38” value (p38 MAP Kinase; [8]) was 5.0, the “percentage of P-p38 positive monocytes” value (p38 MAP Kinase; [8]) was 40% and the “time to maximal P-p38 MFI after LPS stimulation” value (p38 MAP Kinase; primary LPS stimulation) was 15 min. The “P-p38 MFI peak time after restimulation with LPS” value (p38 MAP Kinase; re-stimulation) was 15 to 20 min, the “p38 activity when additional LPS is added” value (p38 MAP Kinase; [7]) was “no additional increase in any MAPK activity” and the “JNK pathway activity after 60 minutes of LPS activation” value (SAPK/JNK; 60 minutes) was “decreased, but do not return to baseline”. The “time of P-SAPK peak after initial LPS stimulation” value (SAPK/JNK; initial stimulation) was 15 min, the “activated JNK in CD14+ monocytes” value (SAPK/JNK; [6]) was “all CD14+ monocytes have activated p-38, JNK, and ERK” and the “JNK activity when additional LPS is added” value (SAPK/JNK; [7]) was “no additional increase in any MAPK activity”. The “P-SAPK levels after initial LPS stimulation” value (SAPK/JNK; [9]) was “do not return to basal levels”, the P-SAPK positive monocytes (SAPK/JNK; [9]) was 30-40% and the “peak activation of S6 relative to other pathway proteins” value (ribosomal S6 protein [3]; LPS stimulated monocytes) was “later than other MAPK pathway proteins”. The “time of P-S6 peak after LPS stimulation” value (ribosomal S6 protein [3]; normal individuals, primary stimulation) was 15 to 30 min and 15 to 60 min, the “persistence of P-S6 levels following LPS stimulation” value (ribosomal S6 protein [3]; primary stimulation) was greater than 120 min and the “MFI of the P-S6 population following LPS re-stimulation” value (ribosomal S6 protein [3]; re-stimulation) was “little change in the MFI”. The “percent of monocytes expressing phospho-ERK after LPS treatment in vitro” value (ERK [4]; normal controls, 15 min after LPS addition, 35% without LPS) was 58% and the “increase in P-ERK monocytes following LPS addition in vitro” value (ERK [4]; presumably septic patients, 25% before LPS) was “less than 10%”.
